Experimental data from patent US10188633B2, “Identification of small molecules that facilitate therapeutic exon skipping” (The Regents of the University of California, priority 2011, dated 2019).

Legend:
mdx mice [1] = assay: Systemic (intravenous) PMOE23 with intraperitoneal dantrolene in mdx mice, exon 23 skipping and dystrophin in multiple muscles; format: in vivo, mouse
Protocol: A systemic dose of 100 mg/kg or sub-optimal 10 mg/kg of morpholino M23D (+07-18) was administered by tail vein injection on Day 1. From Day 2-7 Dantrolene was administered intraperitoneally at a dose of 10 mg/kg/day in two divided doses. On Day 8 multiple muscles were harvested for analysis. (A) DMD exon 23 skipping was assessed as in FIG. 3. Skip/full-length mRNA ratio data were combined for all mice and for all initial muscle groups tested (quadricep, gastrocnemius, tibialis anterior and diaphragm). (B) Dystrophin protein was assessed by Western blot (Mandys8) quantitative densitometry for all muscle groups and individual mice (quadricep, gastrocnemius, tibialis anterior and diaphragm). (C) Quantitative immunohistochemistry is plotted as arbitrary units normalized to surface area for each section for all muscle groups and mice using one whole muscle cross section per animal per muscle. […] (E) Immunostaining of serial sections of treated mdx quadricep detects sarcolemmal localization of dystrophin (MANDYS8), alpha-sarcoglycan (NCL-a-sarc) and beta-dystroglycan (NCL-b-DG). […] Error bars in A-C represent the standard deviation among mice and muscles in each group (n=3 animals or n=12 total observations in saline+dantrolene and 100 mg/kg AO+DMSO; n=4 animals or n=16 observations in 10 mg/kg AO with Dantrolene or DMSO).
This enabled us to assess whether dantrolene in combination with systemic morpholino PMOE23 could enhance Dmd exon 23 skipping and induce dystrophin protein expression in multiple skeletal muscles. A single intravenous dose of 100 mg/kg PMOE23 was used as a positive control. A single intravenous dose of 10 mg/kg AO was used as a sub-optimal dose alone or in combination with twice daily dosing of 10 mg/kg/day of dantrolene intraperitoneally for the subsequent 6 days [7, 27] (n=3 in control groups and n=4 in experimental groups; Table 5).
Multiple skeletal muscles were harvested for analysis on day 7 including the quadriceps, gastrocnemius, tibialis anterior, diaphragm, triceps and heart. Muscles were assessed for: 1) increased amounts of skipped Dmd exon 23 mRNA species 2) Dystrophin protein rescue by Western blot 3) Dystrophin protein expression by quantitative immunostain, 4) appropriate subcellular localization, and 5) restoration of other components of the dystroglycan complex to the sarcolemmal membrane. To determine if dantrolene enhanced Dmd exon 23 skipping, the quantitative taqman assay was performed on RNA from each skeletal muscle.
RNA was isolated from snap frozen skeletal muscle using the QIAGEN RNAeasy Fibrous Tissue Kit.

mdx mice [2] = assay: Taut wire test (wire hang) in mdx mice, weekly AO with daily dantrolene; format: in vivo, mouse; details: 10 mg/kg/week AO with dantrolene 10 mg/kg/day versus AO alone, Day 18, p=0.022
Protocol: Weekly systemic doses of saline, 10 mg/kg of morpholino M23D (+07-18) was administered intravascularly on Day 1, 8, and 15. Dantrolene or carrier (20% DMSO in saline) was administered intraperitoneally at a dose of 10 mg/kg/day in two divided doses daily. On Day 18 functional improvement was blindly assessed by using the taut wire test. Latency to fall (in seconds) was recorded for five consecutive trials, with a one minute break occurring in between each trial. Plotted is first the average across five trials, and then the normalized average (seconds/grams) across experimental groups. Error bars represent the s.e.m.

Dmd exon 23 = Dmd exon 23 skipping in primary mouse myotubes with 2'-O-methyl AO M23D (RT-PCR, taqman); format: cell-based
Protocol: (A) Differentiated primary mouse myotubes were transfected either with 100 nM 2′-O-methyl M23D, which targets exon 23 splice donor region or mock transfected for 24 hours after which the transfection reagent was removed, and myotubes were treated with different concentrations of Dantrolene for 48 hours. Nested RT-PCR was performed on cDNA between exons 20-26, as previously described. The 901 bp band is the full-length mRNA product, the 688 bp mRNA product is a single skip of exon 23, and the 550 bp mRNA product is a double skip of exons 22 and 23. (B) Mouse Dmd exon 23-skipped transcript levels were quantified using a taqman assay with primer-probe sets spanning the splice junction created by an exon 23 skip (22-24 join) relative to primers amplifying the splice junction of exons 22 and 23 (representing the full length mRNA), as previously described. […] Error bars represent standard deviation of qRT-PCR triplicates. (C) Patient derived fibroblasts with exon 45-50 deletion (confirmed by microarray, see FIG. 6) were immortalized with lentiviral hTERT and transduced with inducible lentiviral MyoD [26]. Cells were grown to confluence, induced for MyoD activity, and fused for 10 days in low serum differentiation media. On Day 7, h51AON [5′ […] 3′] (SEQ ID NO:2) (same sequence as Pro051) within human exon 51 was added at concentrations indicated. Twenty-four hours later Dantrolene or vehicle was added. Cells were harvested 2 days later and total RNA isolated. RT-PCR amplified a fragment of cDNA from exons 42-53 which was followed by a nested PCR to generate a fragment spanning exons 43-52. The 540 bp product is the full length DMD mRNA species and the 307 bp product indicates the exon 51 skip isoform. Quantitation was performed using the Agilent Bioanalyzer and represented as the skip/full-length mRNA ratio.

mdx mice [3] = assay: Intramuscular PMOE23 with systemic dantrolene in mdx mice, dystrophin in tibialis anterior; format: in vivo, mouse
Protocol: One dose of either 10 ug or 2 ug of morpholino M23D in 25 ul PBS was injected into the tibialis anterior (TA) of 6 week old mdx mice on day 1 (n=3 per group). Dantrolene was administered by intraperitoneal injection at either 10 or 20 mg/kg/day for 9 days in a volume of 200 ul every 12 hours. Dantrolene was solubilized in 20% DMSO in normal saline. TA muscle was harvested on Day 11 and immediately frozen in Optimal Cutting Temperature compound (O.C.T.) embedding medium. Serial sections along the TA with intervals 800 microns apart were processed to perform assessments within the TA region with maximal AO delivery. […] (A) For Western blot analysis, half of each of the 4 middle intervals were pooled. Dystrophin protein was detected using MANDYS8 (exons 31 and 32) antibody. Control C57 was loaded at 5 ug/well, and 50 ug/well was loaded for other mdx samples. (B) Western blot was quantified by densitometry and plotted as arbitrary densitometry units normalized to vinculin loading control. […] (D) Data from whole muscle cross sections from C were quantified as total fluorescence, without inclusion of edges with artifactual staining, normalized to surface area scanned. […] Images were analyzed using Ariol SL-50 (Applied Imaging Corp., San Jose, Calif.). […]
Total fluorescence was quantitated from TA sections by scanning four entire cross sections from each of the mice for each experimental group.

[4] = long term administration; cited from earlier work
[5] = test system: human DMD exon 50 GFP based reporter; assay: BioMol high throughput screen in Ex50-GFP reporter C2C12 myoblasts, with or without AON6; format: cell-based, mouse
[6] = 10 mg/kg PMOE23 IV with dantrolene 10 mg/kg/day IP

O=C1CN(/N=C/c2ccc(-c3ccc([N+](=O)[O-])cc3)o2)C(=O)N1 [DANTROLENE]
Dmd exon 23 mRNA skipping, aggregate analysis of all skeletal muscle groups (excluding heart) (mdx mice [1]; [6]): significantly increased | Dmd exon 23 skipping in the gastrocnemius, TA, diaphragm and quadriceps (mdx mice [1]; [6]): enhanced skipping | Dmd exon 23 skipping in the triceps (mdx mice [1]; [6]): Enhancement was not apparent | Dmd exon 23 skipping in heart muscle (mdx mice [1]; any experimental condition): No appreciable skipping | mean fold increase in dystrophin protein expression, PMOE23 with dantrolene relative to PMOE23 with vehicle (mdx mice [1]; pooled Western blot densitometry across quadricep, gastrocnemius, TA and diaphragm): 3.1 fold | taut wire test, latency to fall (muscle strength) (mdx mice [2]; listed as Dantrolene): significantly increased ability of mdx mice to hang on wire | taut wire test, latency to fall (muscle strength) (mdx mice [2]; listed as dantrolene): functional benefit | amount of exon 23 skipped product (RT-PCR exons 20-26) (Dmd exon 23; 25 and 50 uM dantrolene after 100 nM M23D): increased the amount of exon 23 skipped product | exon 23 skipping in the absence of AO (Dmd exon 23; no AO): failed to cause exon 23 skipping | increase of Dmd exon 23 skipping (skip/full length mRNA, taqman) versus AO alone (Dmd exon 23; with suboptimal 100 nM AO M23D, mouse myotubes): 3 fold | induced levels of dystrophin (Western blot) (mdx mice [3]; dantrolene 10 or 20 mg/kg/day IP with 2 ug PMOE23 IM): about 20 % of C57 dystrophin levels | dystrophin protein rescue with and without PMOE23 (mdx mice [3]; dantrolene IP, immunofluorescence and Western blot): only rescued protein expression in the presence of PMOE23 | dose shown to be safe in humans [4]: up to 8 mg/kg/day | Average Fluorescence (n = 3) [5]: 18.20 | Fluorescence Plate 1 [5]: 16.32 | Fluorescence Plate 2 [5]: 11.76 | Fluorescence Plate 3 [5]: 26.51 | activity in the −AO screen [5]: indistinguishable from the DMSO controls | exon skipping activity in the screen +AO [5]: enhanced exon skipping activity
